From patent publication US7169789B2 (Kirin Beer Kabushiki Kaisha, priority 1999, dated 2007)

Key:
[1] = system: activation of MAPK within vascular endothelial cells induced by VEGF stimulation; test: Inhibitory activity against activation of MAPK within vascular endothelial cells induced by VEGF stimulation; format: cell-based; conditions: Endothelial cell; human funicular venous vascular endothelial cells, VEGF 50 ng/ml, phosphorylated MAPK by immunoblotting
Procedure: Measurement of Inhibitory Activity Against Activation of MAPK Within Vascular Endothelial Cells Induced by VEGF Stimulation
Human funicular venous vascular endothelial cells (purchased from Chronetics) were cultured in an EGM-2 medium (purchased from Chronetics) within an incubator containing 5% carbon dioxide until 50 to 70% confluent, and the culture was inoculated into wells, containing the same medium, in a 96-well flat-bottom plate in an amount of 1.5×10^5 per well. After cultivation at 37° C. overnight, the medium was replaced by an EBM-2 medium containing 0.5% fetal calf serum (purchased from Chronetics), followed by cultivation for 24 hr. A solution of the test compound in dimethyl sulfoxide was added to each well, and the cultivation was continued at 37° C. for additional one hr. A human recombinant vascular endothelial growth factor (hereinafter abbreviated to “VEGF”) was added to a final concentration of 50 ng/ml, and the stimulation of cells was carried out at 37° C. for 8 min. The medium was removed, the cells were washed with phosphate buffered saline (pH 7.4), and 10 μl of a solubilization buffer (Tris buffered saline (pH 7.4) containing 1% Triton X100, 2 mM sodium orthovanadylate, and 1 mM disodium ethylenediaminetetraacetate) was then added thereto. The mixture was shaken at 4° C. for one hr to solubilize the cells. An equal amount of Tris buffered saline containing 1% sodium laurylsulfate was added to and thoroughly mixed with the solution. This solution (2 μl) was adsorbed on a PVDF filter by dot blotting, and this filter was subjected to immunoblotting with anti-tyrosine phosphorylated MAPK antibody (purchased from Daiichi Pure Chemicals).
The level of phosphorylated MAPK was quantitatively determined with a densitometer, and the percentage phosphorylated MAPK in the presence of the test compound was determined by presuming the level of phosphorylated MAPK with the addition of VEGF in the absence of the test compound to be 100% and the level of phosphorylated MAPK in the absence of the test compound and VEGF to be 0%. The test compound concentration (IC50) necessary for inhibiting 50% of the activation of MAPK was calculated based on the percentage of phosphorylated MAPK.

human KDR = molecular target: T1, human KDR (Homo sapiens, UniProt P35968); test: Inhibitory activity against KDR phosphorylation by ELISA; format: cell-based; conditions: NIH 3T3 cells transfected with human KDR, VEGF 100 ng/ml
T1 construct: expressed in transfected cells; host or cells: NIH 3T3 cells (Sawano A et al., Cell Growth & Differentiation 7, 213-221 (1996))

Human glioma cells GL07 = test: Antitumor effect on human glioma cells (GL07) transplanted into nude mice; format: in vivo; conditions: Mus musculus, Glioma cell, 216 h, GL07, oral, 20 mg/kg once a day for 9 days, read-out: TGIR, % (tumor growth inhibition rate)
How it was run: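 GL07 xenografts in nude mice, grouped (n=4) at ~100 mm^3 tumor volume. Test compound 20 mg/kg p.o. or i.p. once daily for 9 days; vehicle controls. TGIR = (1−Tx/Cx)×100 from tumor volumes normalized to day-of-start volume = 1.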

T1 sequence (P35968 20-1356): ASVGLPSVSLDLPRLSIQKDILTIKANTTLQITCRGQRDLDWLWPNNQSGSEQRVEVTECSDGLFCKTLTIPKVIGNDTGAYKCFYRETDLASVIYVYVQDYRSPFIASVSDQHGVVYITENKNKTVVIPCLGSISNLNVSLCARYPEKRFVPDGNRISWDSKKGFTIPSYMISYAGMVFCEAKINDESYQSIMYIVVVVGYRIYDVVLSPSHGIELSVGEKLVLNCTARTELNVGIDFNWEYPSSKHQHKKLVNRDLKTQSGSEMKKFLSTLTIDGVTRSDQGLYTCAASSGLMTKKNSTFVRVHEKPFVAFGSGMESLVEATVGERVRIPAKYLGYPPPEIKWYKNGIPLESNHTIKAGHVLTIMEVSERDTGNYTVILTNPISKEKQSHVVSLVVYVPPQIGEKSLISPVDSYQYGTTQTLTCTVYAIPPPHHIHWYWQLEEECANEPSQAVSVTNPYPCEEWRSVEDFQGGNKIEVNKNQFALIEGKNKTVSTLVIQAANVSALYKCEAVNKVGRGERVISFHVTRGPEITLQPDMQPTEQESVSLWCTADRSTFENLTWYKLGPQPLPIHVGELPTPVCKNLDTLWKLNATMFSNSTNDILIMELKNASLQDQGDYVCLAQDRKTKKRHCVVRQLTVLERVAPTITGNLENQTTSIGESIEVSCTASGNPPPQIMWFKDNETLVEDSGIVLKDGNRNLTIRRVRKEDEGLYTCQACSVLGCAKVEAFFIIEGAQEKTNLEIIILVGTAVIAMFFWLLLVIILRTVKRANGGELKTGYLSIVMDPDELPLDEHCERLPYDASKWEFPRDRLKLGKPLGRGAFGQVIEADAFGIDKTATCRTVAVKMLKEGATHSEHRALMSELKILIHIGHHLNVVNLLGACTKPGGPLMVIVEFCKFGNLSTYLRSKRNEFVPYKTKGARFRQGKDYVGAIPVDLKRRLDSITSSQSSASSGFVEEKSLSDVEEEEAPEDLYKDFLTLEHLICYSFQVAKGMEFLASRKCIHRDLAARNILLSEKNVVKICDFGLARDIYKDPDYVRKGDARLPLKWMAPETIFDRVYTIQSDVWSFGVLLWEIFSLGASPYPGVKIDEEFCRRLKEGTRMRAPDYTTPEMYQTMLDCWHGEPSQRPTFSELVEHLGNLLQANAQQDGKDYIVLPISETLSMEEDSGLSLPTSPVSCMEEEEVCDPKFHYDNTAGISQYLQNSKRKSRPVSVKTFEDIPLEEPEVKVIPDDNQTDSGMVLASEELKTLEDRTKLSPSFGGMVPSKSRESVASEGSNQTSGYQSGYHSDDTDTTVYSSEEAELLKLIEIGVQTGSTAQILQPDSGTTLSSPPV

SMILES | IC50 [1] [nM] | IC50 (human KDR) [nM] | inhibition in vivo at 20 mg/kg (Human glioma cells GL07) [%]
CCCNC(=O)Nc1ccc(Oc2ncnc3cc(OC)c(OC)cc23)cc1 [Example 64, N-{4-[(6,7-Dimethoxy-4-quinazolinyl)oxy]-phenyl}-N′-propylurea] | 42 | 150 | 37
COc1cc2ncnc(Oc3ccc(NC(=O)NCc4ccc(F)cc4F)c(F)c3)c2cc1OC [Example 93, N-(2,4-Difluorobenzyl)-N′-{4-[(6,7-dimethoxy-4-quinazolinyl)oxy]-2-fluorophenyl}urea] | 14 | 37 | 29
COc1cc2ncnc(Oc3ccc(NC(=O)Nc4ccccc4C)cc3)c2cc1OC [Example 74, N-{4-[(6,7-Dimethoxy-4-quinazolinyl)oxy]-phenyl}-N′-(2-methylphenyl)urea] | 6 | 11 | 28
COc1cc2ncnc(Oc3ccc(NC(=O)N(C)c4ccccn4)c(Cl)c3)c2cc1OC [Example 83] | > 1000 | 840 | 31
C#CCNC(=O)Nc1ccc(Oc2ncnc3cc(OC)c(OC)cc23)cc1 [Example 69, N-{4-[(6,7-Dimethoxy-4-quinazolinyl)-oxy]phenyl}-N′-(2-propynyl)urea] | 67 | 64 | 26
CCNC(=O)Nc1ccc(Oc2ncnc3cc(OC)c(OC)cc23)cc1Cl [Example 76, N-{2-chloro-4-[(6,7-dimethoxy-4-quinazolinyl)-oxy]phenyl}-N′-ethylurea] | 8 | 3.5 | –
COc1cc2ncnc(Oc3ccc(NC(=O)NCc4ccc(F)cc4F)cc3)c2cc1OC [Example 70, N-(2,4-Difluorobenzyl)-N′-{4-[(6,7-dimethoxy-4-quinazolinyl)oxy]phenyl}urea] | 6.8 | 32 | –
COc1cc2ncnc(Oc3ccc(NC(=O)Nc4ccc(Cl)cn4)c(Cl)c3)c2cc1OC [Example 87, N-{2-Chloro-4-[(6,7-dimethoxy-4-quinazolinyl)oxy]phenyl}-N′-(5-chloro-2-pyridyl)urea] | 58 | 110 | –
C#CCNC(=O)Nc1ccc(Oc2ncnc3cc(OC)c(OC)cc23)cc1F [Example 92, N-{4-[(6,7-Dimethoxy-4-quinazolinyl)oxy]-2-fluorophenyl}-N′-(2-propynyl)urea] | 46 | 63 | –
CCC(C)NC(=O)Nc1ccc(Oc2ncnc3cc(OC)c(OC)cc23)cc1F (stereo not shown) [Example 90, N-(sec-Butyl)-N′-{4-[(6,7-dimethoxy-4-quinazolinyl)oxy]-2-fluorophenyl}urea] | 42 | 57 | –

The next molecules have a lower IC50 [1] than those just listed; values first:

IC50 [1] [nM] | IC50 (human KDR) [nM] | SMILES | inhibition in vivo at 20 mg/kg (Human glioma cells GL07) [%]
5.3 | 3.9 | COc1cc2ncnc(Oc3ccc(NC(=O)Nc4ccc(F)cc4F)c(C)c3)c2cc1OC [Example 104, N-(2,4-Difluorophenyl)-N′-{4-[(6,7-dimethoxy-4-quinazolinyl)oxy]-2-methylphenyl}urea] | 22
3.8 | 8.4 | COc1cc2ncnc(Oc3ccc(NC(=O)NCc4ccc(F)cc4F)c(Cl)c3)c2cc1OC [Example 82, N-{2-Chloro-4-[(6,7-dimethoxy-4-quinazolinyl)oxy]phenyl}-N′-(2,4-difluorobenzyl)urea] | 27
< 1 | 1.5 | COc1ccccc1NC(=O)Nc1ccc(Oc2ncnc3cc(OC)c(OC)cc23)cc1C [Example 106, N-{4-[(6,7-Dimethoxy-4-quinazolinyl)oxy]-2-methylphenyl}-N′-(2-methoxyphenyl)urea] | –
2.7 | 3.8 | COc1cc2ncnc(Oc3ccc(NC(=O)Nc4ccccc4C)c(F)c3)c2cc1OC [Example 95, N-{4-[(6,7-Dimethoxy-4-quinazolinyl)oxy]-2-fluorophenyl}-N′-(2-methylphenyl)urea] | –
< 1 | 0.4 | COc1ccccc1NC(=O)Nc1ccc(Oc2ncnc3cc(OC)c(OC)cc23)cc1F [Example 96, N-{4-[(6,7-Dimethoxy-4-quinazolinyl)oxy]-2-fluorophenyl}-N′-(2-methoxyphenyl)urea] | –
